Reference: patent publication US20040024317A1, “Method for assessing capillary permeability” (priority 2002, published 2004)

Experiment: Persistence length by light scattering
Format: physicochemical
Details: little or no substitution; folded polypeptide
Text: An elongated, worm-like conformation of a macromolecule results in greater uptake than other conformations, such as folded, or globular conformations. Conformation may be measured by a persistence length of the molecule. This may be determined by light scattering.
The conformation attained by the present polymeric contrast agents is that of a worm-like shape being essentially a stretched out, extended chain with little folding. A measure of the “straightness” of a molecule is a persistence length. Persistence length is related to a radius of gyration, measured by light scattering experiments. A folded polypeptide such as poly-L-lysine (PLL) with little or no substitution, has a low persistence length of about 10 Angstroms (Å), and is not suitable for diagnosing sepsis. Therefore, the present polymeric contrast agents preferably have a persistence lengths of 100-600 Å.

poly-L-lysine [poly-L-lysine (PLL)]
persistence length: about 10 Angstroms (Å)
